From ChEMBL document CHEMBL1128611, “Evolution of a series of non-quinoline leukotriene D4 receptor antagonist; synthesis and sar of benzothiazoles and thiazoles substituted benzyl alcohols as potent LTD4 antagonists” (Bioorg Med Chem Lett, 1995)
Values joined by “and” are separate entries in the source; they are usually repeats but may differ in a detail not shown here. Identical values can stand only once.

How the values were obtained:
[1] = molecular target: T1, Cysteinyl leukotriene receptor 1 (Cavia porcellus, UniProt Q2NNR5); assay: Inhibition of [3H]LTD4 binding on guinea-pig lung membranes; format: tissue-based, Membrane
T1 sequence (Q2NNR5 whole entry): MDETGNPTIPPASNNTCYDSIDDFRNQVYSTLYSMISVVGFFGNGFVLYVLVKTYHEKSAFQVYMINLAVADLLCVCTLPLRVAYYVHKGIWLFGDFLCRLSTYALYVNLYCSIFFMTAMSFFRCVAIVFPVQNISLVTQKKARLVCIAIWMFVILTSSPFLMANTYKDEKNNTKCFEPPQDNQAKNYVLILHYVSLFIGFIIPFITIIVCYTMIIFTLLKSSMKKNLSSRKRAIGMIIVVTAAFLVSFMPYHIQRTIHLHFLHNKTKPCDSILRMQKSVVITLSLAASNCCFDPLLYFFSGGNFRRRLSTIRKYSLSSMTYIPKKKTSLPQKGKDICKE

[2] = species: Cavia porcellus; assay: Inhibition of LTD4-induced contraction of guinea-pig tracheal chains; format: functional, Trachea
[3] = tested on: Mus musculus; assay: […] effect on peroximal enzyme induction (PEI) over control animals (mice) after 4 days dosing at 400 mg/Kg perorally; format: functional
[4] = tested on: Mus musculus; assay: Compound was evaluated for its effect on the liver weight in mice after 4 days dosing at 400 mg/Kg perorally; format: functional
[5] = tested on: Monkey; assay: […] inhibition of peptidoleukotriene -induced reduction in dynamic compliance in conscious squirrel monkey at a dose of 0.03 mg/Kg; format: functional
[6] = tested on: Monkey; assay: Inhibition of LTD4-induced bronchoconstriction in conscious squirrel monkey; format: functional
[7] = tested on: Mus musculus; assay: […] effect on the liver weight in mice after 4 days dosing at 400 mg/Kg perorally; format: functional
[8] = tested on: Monkey; assay: […] inhibition of peptidoleukotriene -induced reduction in dynamic compliance in conscious squirrel monkey at a dose of 0.1 mg/Kg; format: functional

Structure (SMILES) | IC50 [1] | further results
CC(C)(O)c1ccccc1CC[C@@H](SCC1(CC(=O)O)CC1)c1cccc(/C=C/c2nccs2)c1 | 381 nM | –
CC(C)(O)c1ccccc1CC[C@@H](SCC1(CC(=O)O)CC1)c1cccc(/C=C/c2nc(C3CCCC3)cs2)c1 | 1.4 nM and 0.8 nM | –
CC(C)c1nc(/C=C/c2cccc([C@@H](CCc3ccccc3C(C)(C)O)SCC3(CC(=O)O)CC3)c2)sc1Cl | 170 nM and 197 nM | –
CC(C)(O)c1ccccc1CC[C@@H](SCC1(CC(=O)O)CC1)c1cccc(/C=C/c2nc3cc(C(F)(F)F)ccc3s2)c1 | 7.5 nM and 11.6 nM | –
CC(C)(O)c1ccccc1CC[C@@H](SCC1(CC(=O)O)CC1)c1cccc(/C=C/c2nc3c(s2)CCC3)c1 | 3 nM and 4.6 nM | –
COc1ccc2nc(/C=C/c3cccc([C@@H](CCc4ccccc4C(C)(C)O)SCC4(CC(=O)O)CC4)c3)sc2c1 | 47.6 nM | –
CC(CC(F)(F)F)c1csc(/C=C/c2cccc([C@@H](CCc3ccccc3C(C)(C)O)SCC3(CC(=O)O)CC3)c2)n1 (some centres undefined) | 0.7 nM and 1 nM | –
CC(C)(O)c1ccccc1CC[C@@H](SCC1(CC(=O)O)CC1)c1cccc(/C=C/c2nc(C3CCCCC3)cs2)c1 | 2.1 nM | –
CC(C)(O)c1ccccc1CC[C@@H](SCC1(CC(=O)O)CC1)c1cccc(/C=C/c2nc3c(s2)CCCC3)c1 | 1.5 nM | –
Cc1sc(/C=C/c2cccc([C@@H](CCc3ccccc3C(C)(C)O)SCC3(CC(=O)O)CC3)c2)nc1C(C)C | 12.8 nM and 5.2 nM | –
CC(C)(O)c1ccccc1CC[C@@H](SCC1(CC(=O)O)CC1)c1cccc(/C=C/c2nc3cc(F)c(F)cc3s2)c1 | 0.8 nM | –
CN(C)C(=O)CCS[C@H](SCCC(=O)O)c1cccc(/C=C/c2ccc3ccc(Cl)cc3n2)c1 [VERLUKAST] | 3.9 nM | pKb [2]: 8.9; PEI [3]: 65; Weight [7]: 0%; RL [6]: 59%; Cdyn [8]: 56%

Now from value to compound, other results behind:

IC50 [1] | Structure (SMILES) | further results
7.7 nM and 6 nM | CC(C)(O)c1ccccc1CC[C@@H](SCC1(CC(=O)O)CC1)c1cccc(/C=C/c2nc3cc(Cl)ccc3s2)c1 | –
42.2 nM | CC(C)(O)c1ccccc1CC[C@@H](SCC1(CC(=O)O)CC1)c1cccc(/C=C/c2nc(CSc3ccccc3)cs2)c1 | –
6.7 nM and 15.4 nM | CC(C)(O)c1ccccc1CC[C@@H](SCC1(CC(=O)O)CC1)c1cccc(/C=C/c2nc(-c3ccc(F)cc3)cs2)c1 | –
1.9 nM | CC(C)c1csc(/C=C/c2cccc([C@@H](CCc3ccccc3C(C)(C)O)SCC3(CC(=O)O)CC3)c2)n1 | pKb [2]: 9.1; PEI [3]: 62; Weight [4]: 9%; Cdyn [5]: -8%; RL [6]: 40%
2 nM and 3.3 nM | CC(C)(C)c1csc(/C=C/c2cccc([C@@H](CCc3ccccc3C(C)(C)O)SCC3(CC(=O)O)CC3)c2)n1 | –
16.8 nM | CC(C)(O)c1ccccc1CC[C@@H](SCC1(CC(=O)O)CC1)c1cccc(/C=C/c2nc3ccccc3s2)c1 | –
3.3 nM | CC(C)(O)c1ccccc1CC[C@@H](SCC1(CC(=O)O)CC1)c1cccc(/C=C/c2nc3cc(F)ccc3s2)c1 | pKb [2]: 8.8; PEI [3]: 120; Weight [7]: 12%; Cdyn [5]: 100%; RL [6]: 73%
79.3 nM and 99.7 nM | CC(C)(O)c1ccccc1CC[C@@H](SCC1(CC(=O)O)CC1)c1cccc(/C=C/c2nc(-c3ccc(Cl)cc3)cs2)c1 | –
0.6 nM and 0.5 nM | CC(C)(O)c1ccccc1CC[C@@H](SCC1(CC(=O)O)CC1)c1cccc(/C=C/c2nc(C3CCC3)cs2)c1 | –
98.7 nM and 138 nM | COc1ccc(-c2csc(/C=C/c3cccc([C@@H](CCc4ccccc4C(C)(C)O)SCC4(CC(=O)O)CC4)c3)n2)cc1 | –
1.7 nM and 3.3 nM | CC(C)(O)c1ccccc1CC[C@@H](SCC1(CC(=O)O)CC1)c1cccc(/C=C/c2nc(C3CC3)cs2)c1 | –
11 nM and 6.7 nM | CC(C)(O)c1ccccc1CC[C@@H](SCC1(CC(=O)O)CC1)c1cccc(/C=C/c2nc(-c3ccccc3)cs2)c1 | –
